Test results from PMC8728441, “Biosynthesis of the redox cofactor mycofactocin is controlled by the transcriptional regulator MftR and induced by long-chain acyl-CoA species” (The Journal of Biological Chemistry, 2021).
pKd: −log10 of the molar value.

Experiments:
MftR (WT) = MftR (WT) (Mycolicibacterium smegmatis, UniProt A0QSB5); experiment: ITC binding of acyl-CoAs to MftR; set-up: species or system Mycobacterium smegmatis mc^2155
Experimental: ITC was performed using TA Nano ITC. MftR was loaded in the sample cell at the concentration of 16 and 250 μM acyl-CoAs (C12–C18) loaded in the syringe. To minimize the effect of buffer mismatch, the stock concentration of acyl-CoAs was prepared using ITC buffer (50 mM Hepes, 50 mM NaCl, and pH 7.5), and the pH was adjusted to within 0.05 units. In addition, MftR was buffer exchanged into ITC buffer using a PD-10 column (GE Life Sciences). The volume of the titrant added at each injection into the sample cell was 2.22 μl. The time interval between the successive injections was 180 s. The temperature of the cell was kept at 25 °C. The data obtained were fit by independent one-site model using NanoAnalyze Data Analysis, version 3.8.0, that was provided with the instrument.

MftR–Omft complex = experiment: Competitive EMSA screen for effectors of MftR; format: binding, Mycobacterium smegmatis mc^2155; conditions: 6-FAM Omft 0.5 μM, MftR 5 μM, effectors 100 μM
Experimental: Next, we assessed which metabolites activate MftR and thus could induce MFT production. To do so, we carried out competitive EMSAs where FAM-labeled Omft and MftR were incubated in the presence of potential effectors. We initially chose our effectors based on cholesterol catabolism, a process that putatively includes MFT biosynthetic genes ([38]). […] Knowing that TFRs have a propensity to be activated by fatty acyl-CoAs ([20]), we expanded our effector screening to include short-chain, medium-chain, and long-chain acyl-CoAs.
Figure 4 Effectors of MftR.A, an EMSA used to screen effectors of MftR. The 6-FAM–labeled Omft region (0.5 μM) was incubated with the MftR (5 μM) in the absence or the presence of effectors (100 μM). Protein–DNA complexes were separated by electrophoresis on 5% polyacrylamide gel. […] B, a representative isothermal titration calorimetry thermogram for the binding of the oleoyl-CoA to MftR regulator (blue) and the control of oleoyl-CoA into buffer (red). Each peak corresponds to the injection of 2.22 μl of 250 μM oleoyl-CoA into the cell containing 16 μM MftR or buffer. The integrated thermogram (blue dots) was fitted to a single-site binding model (black line) to determine the Kd. […] C, a bar graph depicting the ITC measured Kds for various acyl-CoAs. Bars represent the mean of three independent experiments, and the error bars represent the standard deviation of the experiments. 6-FAM, 6-carboxyfluorescein; ITC, isothermal titration calorimetry; Omft, mft operator.
His-tagged MftR was used to assess the protein binding to Pmft–MftA promoter fragment. DNA was mixed with increasing concentrations of the MftR protein in the reaction buffer (50 mM Hepes, 50 mM NaCl 0.1 mM EDTA, and pH 7.5) and incubated at room temperature for 10 min. The reactions were resolved by electrophoresis on a 5% (v/v) nondenaturing polyacrylamide gel in 1× Tris/borate/EDTA buffer at 200 V for 20 min on ice. Prior to the analysis, the gel was prerun for 30 min at 150 V on ice. Results were visualized by GelRed and recorded using Azure Biosystems 600 imaging system.

[1] = system: mft BGC (MftA–mCherry reporter); experiment: Spot test growth analysis with Pmft–pCherry reporter; format: cell-based, Mycobacterium smegmatis mc^2155; conditions: 7H9 with 0.05% w/v each glucose and OA, compared with glucose alone
Experimental: To directly establish that oleoyl-CoA induces MFT biosynthesis in vivo, a colony dilution experiment was carried out using Msmeg transformed with Pmft–pCherry grown on Middlebrook 7H9 (7H9) supplemented with glucose or oleic acid (OA). We used OA in the growth media since it is well known that bacterial fatty acid shuttle systems convert free fatty acids to the corresponding acyl-CoAs and since Msmeg encodes for at least two known fatty acid transporters ([48], [49]). […] To assess when this occurs in real time, growth curve assays with Msmeg/Pmft–pCherry were carried out. […] We observed the same effect when OA was added to the media after 12 h of incubation. Next, we determined if MFT induction is dependent on the concentration of OA. We carried out a titration series of growth curves where 7H9 media were supplemented with 0.05% w/v glucose and 0.01, 0.02, 0.05, or 0.1% w/v OA. […]
Figure 6 Induction of MFT biosynthesis by oleoyl-CoA in vivo. […] Fluorescence images were obtained simultaneously from two different petri dishes using 585 nm excitation and 635 nm emission wavelengths. […]
A single time point growth assay was standardized for the growth of Msmeg on 7H9 agar plates with various carbon sources supplemented. […] The absorbance was measured and converted to colony-forming units (CFUs) using the standard 3.13 × 10^7 CFU·ml^−1·absorbance^−1 conversion factor ([58]). […]

[2] = system: mft BGC (MftA–mCherry reporter); experiment: Growth curve assays with Msmeg/Pmft–pCherry; format: cell-based, Mycobacterium smegmatis mc^2155
Experimental: To directly establish that oleoyl-CoA induces MFT biosynthesis in vivo, a colony dilution experiment was carried out using Msmeg transformed with Pmft–pCherry grown on Middlebrook 7H9 (7H9) supplemented with glucose or oleic acid (OA). We used OA in the growth media since it is well known that bacterial fatty acid shuttle systems convert free fatty acids to the corresponding acyl-CoAs and since Msmeg encodes for at least two known fatty acid transporters ([48], [49]). […] To assess when this occurs in real time, growth curve assays with Msmeg/Pmft–pCherry were carried out. […] We observed the same effect when OA was added to the media after 12 h of incubation. Next, we determined if MFT induction is dependent on the concentration of OA. We carried out a titration series of growth curves where 7H9 media were supplemented with 0.05% w/v glucose and 0.01, 0.02, 0.05, or 0.1% w/v OA. […] However, in general, increasing concentrations of OA had little effect on the overall production of the MftA–mCherry fusion. The lack of immediate production of MftA–mCherry after the addition of OA and the concentration independence is perplexing. […] Rather, we expect that a subtler and unknown mechanism is at play.
Figure 7 Growth curve assays with Msmeg/Pmft–pCherry.A, absorbance at 600 nm measurements for the 7H9 media supplemented with 0.1% tyloxapol, 50 μg/ml hygromycin, and glucose and/or oleic acid (OA) as carbon sources. Concentrations of carbon sources were glucose only (0.1% w/v), OA only (0.1% w/v), and glucose/OA (0.05% w/v each) where OA was added after 12 h (blue arrow). B, corresponding fluorescence intensities (excitation of 585 nm/emission of 612 nm) of Msmeg/Pmft–pCherry cultures described in A. C, absorbance at 600 nm measurements for dose-dependent addition of OA to the 7H9 media supplemented with 0.05% w/v glucose and 0.01, 0.02, 0.05, 0.1% w/v of OA. D, corresponding fluorescence intensities of Msmeg/Pmft–pCherry cultures described in C. 7H9, Middlebrook 7H9; Msmeg, Mycobacterium smegmatis mc^2155; Pmft, mft promoter.
For fluorescence-based assays, a single Msmeg colony harboring Pmft–pCherry was used to inoculate 25 ml of 7H9 media supplemented with 0.1% tyloxapol, 0.1% w/v glycerol, 50 μg/ml hygromycin, and 0.1% w/v glucose. For cultures containing OA only, 0.1% w/v OA was used. […] The overnight culture was used to inoculate 7H9 media to an absorbance of 0.05 at 600 nm (1 cm pathlength) with carbon sources supplemented as described previously. […] Aliquots were taken every 2 h, and absorbance at 600 nm values were measured. To track the expression of the Pmft–pCherry fusion, fluorescence measurements were taken on a Cary Fluorimeter every 2 h using an excitation of 585 nm and an emission of 612 nm.

MftR (WT), sequence (A0QSB5 entry or part of it): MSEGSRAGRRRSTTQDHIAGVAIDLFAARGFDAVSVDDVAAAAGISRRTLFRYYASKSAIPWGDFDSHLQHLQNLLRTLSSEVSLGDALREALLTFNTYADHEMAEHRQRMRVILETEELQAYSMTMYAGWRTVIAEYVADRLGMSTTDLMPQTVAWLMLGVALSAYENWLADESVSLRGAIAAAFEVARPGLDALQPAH

CCCCCCCCCCCC(=O)SCCNC(=O)CCNC(=O)[C@H](O)C(C)(C)COP(=O)(O)OP(=O)(O)OC[C@H]1O[C@@H](n2cnc3c(N)ncnc32)[C@H](O)[C@@H]1OP(=O)(O)O [lauroyl-CoA]
decrease in binding affinity as compared with oleoyl-CoA (MftR (WT); ITC, WT MftR): ~10 fold

succinyl-CoA
disruption of the MftR–Omft complex (DNA release) (MftR–Omft complex): did not observe DNA release

CC(=O)CC(=O)SCCNC(=O)CCNC(=O)[C@H](O)C(C)(C)COP(=O)(O)OP(=O)(O)OC[C@H]1O[C@@H](n2cnc3c(N)ncnc32)[C@H](O)[C@@H]1OP(=O)(O)O [acetoacetyl-CoA]
disruption of the MftR–Omft complex (DNA release) (MftR–Omft complex): did not observe DNA release

CC(C)CCC[C@@H](C)[C@H]1CC[C@H]2[C@@H]3CC=C4C[C@@H](O)CC[C@]4(C)[C@H]3CC[C@]12C [cholesterol]
disruption of the MftR–Omft complex (DNA release) (MftR–Omft complex): did not observe DNA release

CCCCCCCCCCCCCCCC(=O)SCCNC(=O)CCNC(=O)[C@H](O)C(C)(C)COP(=O)(O)OP(=O)(O)OC[C@H]1O[C@@H](n2cnc3c(N)ncnc32)[C@H](O)[C@@H]1OP(=O)(O)O [palmitoyl-CoA]
pKd (MftR (WT)): 5.40 to 5.70

CCC(=O)SCCNC(=O)CCNC(=O)[C@H](O)C(C)(C)COP(=O)(O)OP(=O)(O)OC[C@H]1O[C@@H](n2cnc3c(N)ncnc32)[C@H](O)[C@@H]1OP(=O)(O)O [propionyl-CoA]
disruption of the MftR–Omft complex (DNA release) (MftR–Omft complex): did not observe DNA release

CC(C)(COP(=O)(O)OP(=O)(O)OC[C@H]1O[C@@H](n2cnc3c(N)ncnc32)[C@H](O)[C@@H]1OP(=O)(O)O)[C@@H](O)C(=O)NCCC(=O)NCCS [CoA]
disruption of the MftR–Omft complex (DNA release) (MftR–Omft complex): did not disrupt the MftR–Omft complex

CCCCCCCC/C=C\CCCCCCCC(=O)O [OA, oleic acid]
fluorescence intensity of colonies [1]: starkly increased
fluorescence intensity in OA titration series ([2]; 0.05% w/v OA with 0.05% w/v glucose, within 40 h): highest fluorescence intensity
fluorescence intensity compared with the control ([2]; 0.1% OA only, cultures at nearly the same absorbance): nearly three times
fluorescence intensity ([2]; OA added to the media after 12 h of incubation (glucose/OA 0.05% w/v each)): same effect
overall production of the MftA–mCherry fusion ([2]; increasing OA 0.01, 0.02, 0.05, 0.1% w/v with 0.05% w/v glucose): little effect

CCCCCCCCCCCCCC(=O)SCCNC(=O)CCNC(=O)[C@H](O)C(C)(C)COP(=O)(O)OP(=O)(O)OC[C@H]1O[C@@H](n2cnc3c(N)ncnc32)[C@H](O)[C@@H]1OP(=O)(O)O [myristoyl-CoA]
disruption of the MftR–Omft complex (DNA release) (MftR–Omft complex): disrupted the MftR–Omft complex

CCCCCCCCCCCCCCCCCC(=O)SCCNC(=O)CCNC(=O)[C@H](O)C(C)(C)COP(=O)(O)OP(=O)(O)OC[C@H]1O[C@@H](n2cnc3c(N)ncnc32)[C@H](O)[C@@H]1OP(=O)(O)O [steroyl-CoA]
pKd (MftR (WT)): 5.40 to 5.70
